The results in this text go back to patent publication US5627181A, “6-membered nitrogen-containing heteroaryl-oxazolidinones” (Bayer Aktiengesellschaft, priority 1994, dated 1997).

Holding throughout (format): cell-based
The test system of one assay is Staph. 133. The experiment in a line: MIC values, Staph. 133. The note with it: 37° C., about 20 hours. The protocol: (§1) The minimum inhibitory concentrations (MIC) were determined by the series dilution method on Iso-Sensitest agar (Oxoid). A series of agar plates which contained concentrations of the active compound which decreased by two-fold dilution in each case were prepared for each test substance. The agar plates were inoculated with a Multipoint inoculator (Denley). Overnight cultures of the pathogens which had been diluted beforehand such that each inoculation point contained about 10^4 colony-forming particles were used for the inoculation. The inoculated agar plates were incubated at 37° C. and the germ growth was read off after about 20 hours. The MIC value (μg/ml) indicates the lowest concentration of active compound at which no growth was detectable with the naked eye.
(§2) The MIC values were determined with the aid of the microdilution method in BH medium. Each test substance was dissolved in the nutrient medium. A concentration series of the test substances was prepared in the microtiter plate by serial dilution. Overnight cultures of the pathogens which were diluted 1:250 beforehand in the nutrient medium were used for the inoculation. In each case 100 μl of inoculation solution were added to 100 μl of the diluted nutrient solutions containing the active compound.

A further assay deals with Staph. 48N. The experiment in a line: MIC values, Staph. 48N. The note with it: 37° C., about 20 hours. The protocol:
as §1, §2

The subject of the next assay is Staph 25701. As to the kind of experiment: MIC values, Staph 25701. The note with it: 37° C., about 20 hours. The protocol:
as §1, §2

A further assay relates to Staph. 9TV. As to the kind of experiment: MIC values, Staph. 9TV. The note with it: 37° C., about 20 hours. The protocol:
as §1, §2

The next assay deals with E. coli Neumann. As to the kind of experiment: MIC values, E. coli Neumann. The note with it: Escherichia coli, 37° C., about 20 hours. The protocol:
as §1, §2

The subject of the next assay is Klebs. 57 USA. As to the kind of experiment: MIC values, Klebs. 57 USA. The note with it: 37° C., about 20 hours. The protocol: as §1, §2
The next assay deals with Psdm. Bonn. The experiment in a line: MIC values, Psdm. Bonn. The note with it: 37° C., about 20 hours. The protocol: as §1, §2

≈ marks a conversion by molar mass, not a printed value. Some results are limits rather than exact numbers.

`CC(=O)NC[C@H]1CN(c2ccc(-c3csc(C=O)c3)cn2)C(=O)O1` [Example 44]: the MIC in the assay with Staph. 133 is 2 µg/mL (≈ 5.79 µM); with Staph. 48N, 4 µg/mL (≈ 11.6 µM); in the assay with Staph 25701, 2 µg/mL (≈ 5.79 µM); in the assay with Staph. 9TV, 2 µg/mL (≈ 5.79 µM); against E. coli Neumann, above 32 µg/mL; in the assay on Klebs. 57 USA, above 32 µg/mL. The MIC in the assay on Psdm. Bonn is above 32 µg/mL.

Consider `CC(=O)NC[C@H]1CN(c2ccc(-c3ccc(C(C)=O)s3)cn2)C(=O)O1` [Example 43], for which the minimal inhibitory concentration (MIC) was 0.25 µg/mL (≈ 0.696 µM) in the assay with Staph. 133; 0.5 µg/mL (≈ 1.39 µM) against Staph. 48N; 0.5 µg/mL (≈ 1.39 µM) against Staph 25701; 0.25 µg/mL (≈ 0.696 µM) in the assay on Staph. 9TV; above 32 µg/mL with E. coli Neumann; above 32 µg/mL in the assay on Klebs. 57 USA. In the assay with Psdm. Bonn, the MIC was above 32 µg/mL.

As to `CC(=O)NC[C@H]1CN(c2ccc(-c3ccc(F)cc3)cn2)C(=O)O1` [Example 47], the MIC in the assay with Staph. 133 is 4 µg/mL (≈ 12.1 µM); with Staph. 48N, 2 µg/mL (≈ 6.07 µM); with Staph 25701 it was 1 µg/mL (≈ 3.04 µM); with Staph. 9TV it was 1 µg/mL (≈ 3.04 µM); against E. coli Neumann, above 64 µg/mL; against Klebs. 57 USA, above 64 µg/mL. The MIC in the assay with Psdm. Bonn was above 64 µg/mL.

Turning to `CC(=O)NC[C@H]1CN(c2ccc(-c3ccccc3)cn2)C(=O)O1` [Example 37], the MIC in the assay on Staph. 133 was 1 µg/mL (≈ 3.21 µM); against Staph. 48N, 1 µg/mL (≈ 3.21 µM); in the assay on Staph 25701, 1 µg/mL (≈ 3.21 µM); against Staph. 9TV, 0.5 µg/mL (≈ 1.61 µM); against E. coli Neumann, above 32 µg/mL; against Klebs. 57 USA, above 32 µg/mL. The same compound had an MIC in the assay with Psdm. Bonn above 32 µg/mL.

Consider `CC(=O)NC[C@H]1CN(c2ccc(-c3cccc(C(C)=O)c3)cn2)C(=O)O1` [Example 42], for which the MIC was 4 µg/mL (≈ 11.3 µM) with Staph. 133; 4 µg/mL (≈ 11.3 µM) in the assay with Staph. 48N; 4 µg/mL (≈ 11.3 µM) against Staph 25701; 4 µg/mL (≈ 11.3 µM) with Staph. 9TV; above 64 µg/mL in the assay with E. coli Neumann; above 64 µg/mL against Klebs. 57 USA.

On to `CC(=O)NC[C@H]1CN(c2ccc(-c3ccccc3C=O)cn2)C(=O)O1` [Example 38], for which the MIC with Staph. 133 is 4 µg/mL (≈ 11.8 µM); against Staph. 48N, 4 µg/mL (≈ 11.8 µM); against Staph 25701, 8 µg/mL (≈ 23.6 µM); in the assay on Staph. 9TV it was 2 µg/mL (≈ 5.89 µM); against E. coli Neumann it was above 32 µg/mL; in the assay with Klebs. 57 USA, above 32 µg/mL. In the assay on Psdm. Bonn, this compound came in with a minimum inhibitory concentration (MIC) above 32 µg/mL.

In the case of `CC(=O)NC[C@H]1CN(c2ccc(-c3ccc(C=O)cc3)cn2)C(=O)O1` [Example 40], the MIC was 1 µg/mL (≈ 2.95 µM) with Staph. 133; 1 µg/mL (≈ 2.95 µM) in the assay on Staph. 48N; 1 µg/mL (≈ 2.95 µM) with Staph 25701; 0.5 µg/mL (≈ 1.47 µM) against Staph. 9TV; above 32 µg/mL in the assay with E. coli Neumann; above 32 µg/mL against Klebs. 57 USA. In the assay on Psdm. Bonn, this compound gave an MIC above 32 µg/mL.

In the case of `CC(=O)NC[C@H]1CN(c2ccc(-c3ccc(C(C)=O)cc3)cn2)C(=O)O1` [Example 41], the MIC in the assay with Staph. 133 is 2 µg/mL (≈ 5.66 µM); against Staph. 48N, 4 µg/mL (≈ 11.3 µM); against Staph 25701, 4 µg/mL (≈ 11.3 µM); against Staph. 9TV, 1 µg/mL (≈ 2.83 µM); in the assay on E. coli Neumann it was above 32 µg/mL; in the assay on Klebs. 57 USA, above 32 µg/mL. In the assay on Psdm. Bonn, this compound returned an MIC above 32 µg/mL.

Consider `CC(=O)NC[C@H]1CN(c2ccc3ncccc3c2)C(=O)O1` [Example 29], for which the MIC against Staph. 133 is 8 µg/mL (≈ 28 µM); in the assay on Staph. 48N, 8 µg/mL (≈ 28 µM); against Staph 25701, 8 µg/mL (≈ 28 µM); in the assay with Staph. 9TV, 8 µg/mL (≈ 28 µM); against E. coli Neumann, above 64 µg/mL; against Klebs. 57 USA it was above 64 µg/mL.

`CC(=O)NC[C@H]1CN(c2ccc(-c3ccc(C)cc3)cn2)C(=O)O1` [Example 36, (5S)-3-[5-(4-Methylphenyl)pyridin-2-yl]-5-acetyl-aminomethyl-oxazolidin-2-one]: the MIC was 4 µg/mL (≈ 12.3 µM) against Staph. 133; 4 µg/mL (≈ 12.3 µM) with Staph. 48N; 4 µg/mL (≈ 12.3 µM) with Staph 25701; 1 µg/mL (≈ 3.07 µM) in the assay on Staph. 9TV; above 32 µg/mL in the assay on E. coli Neumann; above 32 µg/mL in the assay with Klebs. 57 USA. Moreover, in the assay with Psdm. Bonn, the MIC was above 32 µg/mL.

`CC(=O)NC[C@H]1CN(c2ccc(-c3ccc(F)c(Cl)c3)cn2)C(=O)O1` [Example 46]: the minimal inhibitory concentration (MIC) against Staph. 133 was 8 µg/mL (≈ 22 µM); against Staph. 48N, 2 µg/mL (≈ 5.5 µM); against Staph 25701, 4 µg/mL (≈ 11 µM); against Staph. 9TV it was 2 µg/mL (≈ 5.5 µM); in the assay on E. coli Neumann it was above 64 µg/mL; in the assay with Klebs. 57 USA it was above 64 µg/mL. In the assay with Psdm. Bonn, the MIC was above 64 µg/mL.

Turning to `CC(=O)NC[C@H]1CN(c2ccc3cccc(-c4ccc(C)cc4)c3n2)C(=O)O1` [Example 59], the minimal inhibitory concentration (MIC) is 1 µg/mL (≈ 2.66 µM) against Staph. 133; 2 µg/mL (≈ 5.33 µM) against Staph. 48N; 1 µg/mL (≈ 2.66 µM) in the assay on Staph 25701; 1 µg/mL (≈ 2.66 µM) in the assay with Staph. 9TV; above 32 µg/mL against E. coli Neumann; above 32 µg/mL in the assay with Klebs. 57 USA. In addition, the MIC against Psdm. Bonn is above 32 µg/mL.

Turning to `CC(=O)NC[C@H]1CN(c2ccc(-c3cccc([N+](=O)[O-])c3)cn2)C(=O)O1` [Example 48], the MIC with Staph. 133 was 4 µg/mL (≈ 11.2 µM); in the assay with Staph. 48N it was 2 µg/mL (≈ 5.61 µM); against Staph 25701, 2 µg/mL (≈ 5.61 µM); in the assay on Staph. 9TV, 1 µg/mL (≈ 2.81 µM); in the assay with E. coli Neumann, above 64 µg/mL; against Klebs. 57 USA, above 64 µg/mL. In addition, in the assay with Psdm. Bonn, the minimal inhibitory concentration (MIC) is above 64 µg/mL.

As for `CC(=O)NC[C@H]1CN(c2ccc(-c3cccc(C=O)c3)cn2)C(=O)O1` [Example 39], the MIC in the assay with Staph. 133 was 0.25 µg/mL (≈ 0.737 µM); in the assay on Staph. 48N, 0.5 µg/mL (≈ 1.47 µM); against Staph 25701, 0.5 µg/mL (≈ 1.47 µM); against Staph. 9TV, 0.125 µg/mL (≈ 0.368 µM); with E. coli Neumann, above 32 µg/mL; in the assay with Klebs. 57 USA, above 32 µg/mL. In the assay on Psdm. Bonn, this compound had an MIC above 32 µg/mL.

For orientation: MIC means the lowest concentration that inhibits growth of the organism. A lower MIC goes with inhibition by little substance.
